Assay: Solid form stability on storage, analyzed using PXRD
Assay type: physicochemical
Description: The crystalline Form S2 of Siponimod prepared by the process of the present application is kept at about 25° C. After three months the solid was analyzed using PXRD. […] The crystalline Form S2 of Siponimod prepared by the process of the present application is kept at about 70° C. After three months the solid was analyzed using PXRD.
In another aspect, the present application provides stable amorphous Siponimod. […] The amorphous Siponimod prepared by the process of the present application is kept in a […] at about 5° C. After one year the solid was analyzed using PXRD.
The amorphous form of siponimod prepared in example-3 was kept in an amber colored glass bottle at 2-8° C. for one year and the solid was analyzed using PXRD.

Structure (SMILES)	stability of the amorphous form (time stable) (amorphous form, storage, PXRD)	solid form after storage (PXRD) (kept in a freezer at about 5° C., after one year, PXRD shown in FIG. 7)	stability of the crystalline form (time stable) (crystalline Form S2, storage, PXRD)	solid form after storage (PXRD) (kept at about 25° C., after three months, PXRD matches FIG. 3)	solid form after storage (PXRD) (kept at about 70° C., after three months, PXRD matches FIG. 3)
CCc1cc(/C(C)=N/OCc2ccc(C3CCCCC3)c(C(F)(F)F)c2)ccc1CN1CC(C(=O)O)C1 [amorphous Siponimod]	stable for at least one year	remains in amorphous form			
CCc1cc(/C(C)=N/OCc2ccc(C3CCCCC3)c(C(F)(F)F)c2)ccc1CN1CC(C(=O)O)C1 [crystalline Form S2 of Siponimod]			stable for at least three months	remains in crystalline Form S2	remains in crystalline Form S2

Source: patent US20220144768A1, “SOLID STATE FORMS OF SIPONIMOD” (DR. REDDY'S LABORATORIES LIMITED, priority 2019, published 2022)
